According to the Kinase Knowledgebase extract (Sharma et al. 2016):

Target: EGFR (UniProt P00533)
Experiment: Inhibition of EGFR Kinase Activity

Sequence of EGFR (P00533 whole entry, looked up): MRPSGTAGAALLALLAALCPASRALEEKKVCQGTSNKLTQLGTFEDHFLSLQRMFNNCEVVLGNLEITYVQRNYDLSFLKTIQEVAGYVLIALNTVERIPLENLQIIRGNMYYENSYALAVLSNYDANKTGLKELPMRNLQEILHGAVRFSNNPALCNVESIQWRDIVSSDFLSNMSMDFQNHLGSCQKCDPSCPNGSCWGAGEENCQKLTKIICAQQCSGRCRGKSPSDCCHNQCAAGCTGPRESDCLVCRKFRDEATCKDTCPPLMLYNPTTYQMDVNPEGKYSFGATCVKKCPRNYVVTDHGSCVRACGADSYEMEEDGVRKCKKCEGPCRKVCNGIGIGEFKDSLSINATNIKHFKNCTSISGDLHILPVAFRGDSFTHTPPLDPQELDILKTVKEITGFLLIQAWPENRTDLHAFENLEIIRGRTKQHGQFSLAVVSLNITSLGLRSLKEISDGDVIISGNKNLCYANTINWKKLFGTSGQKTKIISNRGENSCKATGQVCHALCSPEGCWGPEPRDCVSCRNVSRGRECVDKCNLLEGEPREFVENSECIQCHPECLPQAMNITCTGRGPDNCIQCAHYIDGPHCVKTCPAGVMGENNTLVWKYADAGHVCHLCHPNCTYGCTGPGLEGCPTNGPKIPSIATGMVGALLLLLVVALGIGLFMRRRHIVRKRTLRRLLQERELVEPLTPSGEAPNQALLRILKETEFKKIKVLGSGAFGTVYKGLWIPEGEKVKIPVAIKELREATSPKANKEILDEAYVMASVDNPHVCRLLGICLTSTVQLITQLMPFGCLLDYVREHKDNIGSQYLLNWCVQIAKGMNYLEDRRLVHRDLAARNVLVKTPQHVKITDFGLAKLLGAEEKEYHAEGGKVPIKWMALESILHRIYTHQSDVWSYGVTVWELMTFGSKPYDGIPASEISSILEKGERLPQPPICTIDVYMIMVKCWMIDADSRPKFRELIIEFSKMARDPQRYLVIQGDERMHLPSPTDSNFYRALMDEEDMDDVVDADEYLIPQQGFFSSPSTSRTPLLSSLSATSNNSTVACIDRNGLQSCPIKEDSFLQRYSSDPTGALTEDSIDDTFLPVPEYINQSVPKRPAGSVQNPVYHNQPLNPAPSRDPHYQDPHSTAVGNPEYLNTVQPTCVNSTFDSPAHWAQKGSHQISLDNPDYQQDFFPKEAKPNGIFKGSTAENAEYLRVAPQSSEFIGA

IC50	Compound
< 50 µM	C=CC(=O)Nc1cccc(Nc2ncnc(N(C)c3cc(OC)c(OC)c(OCCN4CCOCC4)c3)n2)c1
< 50 µM	C=CC(=O)Nc1cccc(Nc2ncnc(Nc3cccc(S(=O)(=O)c4ccc([N+](=O)[O-])cc4)c3)n2)c1
< 50 µM	C=CC(=O)Nc1ccc(Nc2ncnc(N(C)c3cc(Cl)ccc3C)n2)cc1
< 50 µM	CC#CC(=O)Nc1cccc(Nc2ncnc(NC3CC3c3ccccc3)n2)c1 (stereo not drawn)
< 50 µM	CC#CC(=O)Nc1cccc(Nc2ncnc(N(C)c3ccc(OCCC)c(OCCC)c3)n2)c1
< 50 µM	CC#CC(=O)Nc1cccc(Nc2ncnc(Nc3cc(OC)c(OC)c(OCCN4CCOCC4)c3)n2)c1
< 50 µM	CC#CC(=O)Nc1cc(Nc2ncnc(N(C)c3cccc(Cl)c3)n2)ccc1OCCCN1CCOCC1
< 50 µM	C=CCN(c1cccc(S(=O)(=O)c2ccc([N+](=O)[O-])cc2)c1)c1ncnc(Nc2ccc(NC(=O)C=C)cc2)n1
< 50 µM	CC#CC(=O)Nc1cccc(Nc2ncnc(Nc3ccc4c(ccn4Cc4ccccc4)c3)n2)c1
< 50 µM	C=CC(=O)Nc1ccc(Nc2ncnc(N(CC)C3CC3c3ccc(Cl)cc3)n2)cc1 (stereo not drawn)
< 50 µM	C=CC(=O)Nc1cc(Nc2ncnc(Nc3cccc(Cl)c3)n2)ccc1OCCCC1CCN(C)CC1
< 50 µM	C=CCN(c1ncnc(Nc2ccc(NC(=O)C=C)cc2)n1)c1cccc2ccccc12
< 50 µM	C=CC(=O)Nc1ccc(Nc2ncnc(Nc3cc(OC)c(OC)c(OCCN4CCOCC4)c3)n2)cc1
< 50 µM	C=CC(=O)Nc1cccc(Nc2ncnc(N(C)c3ccc(OCc4ccccc4)c(Cl)c3)n2)c1
< 50 µM	CC#CC(=O)Nc1cccc(Nc2ncnc(Nc3cccc(C(N)=O)c3)n2)c1
< 50 µM	C=CC(=O)Nc1cc(Nc2ncnc(Nc3ccc(OCc4ccccc4)c(Cl)c3)n2)ccc1OCCCC1CCN(C)CC1
< 50 µM	C=CC(=O)Nc1cccc(Nc2ncnc(N(CC)c3cccc(C(N)=O)c3)n2)c1
< 50 µM	C=CC(=O)Nc1ccc(Nc2ncnc(N(CC)c3cc(OC)c(OC)c(OCCN4CCOCC4)c3)n2)cc1
< 50 µM	CC#CC(=O)Nc1cccc(Nc2ncnc(N(C)c3ccc(F)c(Cl)c3)n2)c1

IC50	Compound
< 50 µM	CC#CC(=O)Nc1cc(Nc2ncnc(Nc3ccc4c(cnn4Cc4ccccc4)c3)n2)ccc1OCCCN1CCOCC1
< 50 µM	C=CC(=O)Nc1cccc(Nc2ncnc(Nc3cccc(Br)c3)n2)c1
< 50 µM	C=CC(=O)Nc1cccc(Nc2ncnc(N(C)c3ccc(OCc4ccccc4)cc3)n2)c1
< 50 µM	CC#CC(=O)Nc1cccc(Nc2ncnc(N(C)c3ccc(OC)c(OC)c3)n2)c1
< 50 µM	CC#CC(=O)Nc1cccc(Nc2ncnc(N(CC)c3cccc(Cl)c3)n2)c1
< 50 µM	C=CC(=O)Nc1ccc(Nc2ncnc(Nc3ccc4c(cnn4Cc4ccccc4)c3)n2)cc1
< 50 µM	CC#CC(=O)Nc1cccc(Nc2ncnc(NC3CC3c3ccc(Cl)cc3)n2)c1 (stereo not drawn)
< 50 µM	CC#CC(=O)Nc1cccc(Nc2ncnc(n2)N(CC=C)c3ccc4NN(=Cc4c3)Cc5ccccn5)c1
< 50 µM	CC#CC(=O)Nc1cc(Nc2ncnc(Nc3ccc(OCc4ccccc4)c(Cl)c3)n2)ccc1OCCCN1CCOCC1
< 50 µM	C=CC(=O)N(CCCN1CCOCC1)c1cccc(Nc2ncnc(Nc3cccc(Cl)c3)n2)c1
< 50 µM	C=CC(=O)Nc1cccc(Nc2ncnc(N(CC)c3cccc(CC(=O)OC)c3)n2)c1
< 50 µM	C=CC(=O)Nc1cccc(Nc2ncnc(NC3CC3c3ccccc3)n2)c1 (stereo not drawn)
< 50 µM	C=CC(=O)Nc1cccc(Nc2ncnc(N(C)c3ccc(OCCC)c(OCCC)c3)n2)c1
< 50 µM	CC#CC(=O)Nc1cc(Nc2ncnc(Nc3cccc(Cl)c3)n2)ccc1OCCCN1CCOCC1
< 50 µM	CC#CC(=O)Nc1cccc(Nc2ncnc(N(CC)C3CC3c3ccccc3)n2)c1 (stereo not drawn)
< 50 µM	C=CC(=O)Nc1cccc(Nc2ncnc(Nc3ccc(OCCC)c(OCCC)c3)n2)c1
< 50 µM	C=CC(=O)Nc1ccc(Nc2ncnc(N(CC)c3ccc(OCCOC)c(OC)c3)n2)cc1
< 50 µM	C=CC(=O)Nc1cccc(Nc2ncnc(N3CCCc4ccc(Cl)cc43)n2)c1
< 50 µM	C=CC(=O)Nc1cccc(Nc2ncnc(Nc3ccc4nc(Cc5ccccc5)[nH]c4c3)n2)c1
